From ChEMBL document CHEMBL1781959, “Synthesis and in vitro antitumor activity of substituted quinazoline and quinoxaline derivatives: search for anticancer agent” (Eur J Med Chem, 2011)

How the values were obtained:
Format in all cases: functional
OVCAR-5 = experiment: Anticancer activity against human OVCAR5 cells assessed as cell growth promotion at 10^-5 M after 48 hrs by SRB assay relative to control
DU-145 = experiment: Anticancer activity against human DU145 cells assessed as cell growth promotion at 10^-5 M after 48 hrs by SRB assay relative to control
CCRF-CEM = experiment: Anticancer activity against human CCRF-CEM cells assessed as cell growth promotion at 10^-5 M after 48 hrs by SRB assay relative to control
K562 = experiment: Anticancer activity against human K562 cells assessed as cell growth promotion at 10^-5 M after 48 hrs by SRB assay relative to control
MDA-MB-468 = experiment: Anticancer activity against human MDA-MB-468 cells assessed as cell growth promotion at 10^-5 M after 48 hrs by SRB assay relative to control
CAKI-1 = experiment: Anticancer activity against human Caki1 cells assessed as cell growth promotion at 10^-5 M after 48 hrs by SRB assay relative to control
NCI-H226 = experiment: Anticancer activity against human NCI-H226 cells assessed as cell growth promotion at 10^-5 M after 48 hrs by SRB assay relative to control
A498 = experiment: Anticancer activity against human A498 cells assessed as cell growth promotion at 10^-5 M after 48 hrs by SRB assay relative to control
SF-268 = experiment: Anticancer activity against human SF268 cells assessed as cell growth promotion at 10^-5 M after 48 hrs by SRB assay relative to control
OVCAR-8 = experiment: Anticancer activity against human OVCAR8 cells assessed as cell growth promotion at 10^-5 M after 48 hrs by SRB assay relative to control
MDA-MB-231 = experiment: Anticancer activity against human MDA-MB-231 cells assessed as cell growth promotion at 10^-5 M after 48 hrs by SRB assay relative to control
NCI-H460 = experiment: Anticancer activity against human NCI-H460 cells assessed as cell growth promotion at 10^-5 M after 48 hrs by SRB assay relative to control
EKVX = experiment: Anticancer activity against human EKVX cells assessed as cell growth promotion at 10^-5 M after 48 hrs by SRB assay relative to control
SNB-19 = experiment: Anticancer activity against human SNB19 cells assessed as cell growth promotion at 10^-5 M after 48 hrs by SRB assay relative to control
KM12 = experiment: Anticancer activity against human KM12 cells assessed as cell growth promotion at 10^-5 M after 48 hrs by SRB assay relative to control
UACC-257 = experiment: Anticancer activity against human UACC257 cells assessed as cell growth promotion at 10^-5 M after 48 hrs by SRB assay relative to control
HCT-15 = experiment: Anticancer activity against human HCT15 cells assessed as cell growth promotion at 10^-5 M after 48 hrs by SRB assay relative to control
HCC 2998 = experiment: Anticancer activity against human HCC2998 cells assessed as cell growth promotion at 10^-5 M after 48 hrs by SRB assay relative to control
SK-MEL-28 = experiment: Anticancer activity against human SK-MEL-28 cells assessed as cell growth promotion at 10^-5 M after 48 hrs by SRB assay relative to control
MDA-MB-435 = experiment: Anticancer activity against human MDA-MB-435 cells assessed as cell growth promotion at 10^-5 M after 48 hrs by SRB assay relative to control
T47D = experiment: Anticancer activity against human T47D cells assessed as cell growth promotion at 10^-5 M after 48 hrs by SRB assay relative to control
SK-OV-3 = experiment: Anticancer activity against human SKOV3 cells assessed as cell growth promotion at 10^-5 M after 48 hrs by SRB assay relative to control
SN12C = experiment: Anticancer activity against human SN12C cells assessed as cell growth promotion at 10^-5 M after 48 hrs by SRB assay relative to control
NCI/ADR-RES = experiment: Anticancer activity against human NCI/ADR-RES cells assessed as cell growth promotion at 10^-5 M after 48 hrs by SRB assay relative to control
SF-539 = experiment: Anticancer activity against human SF539 cells assessed as cell growth promotion at 10^-5 M after 48 hrs by SRB assay relative to control
OVCAR-3 = experiment: Anticancer activity against human OVCAR3 cells assessed as cell growth promotion at 10^-5 M after 48 hrs by SRB assay relative to control
PC-3 = experiment: Anticancer activity against human PC3 cells assessed as cell growth promotion at 10^-5 M after 48 hrs by SRB assay relative to control
SK-MEL-5 = experiment: Anticancer activity against human SK-MEL-5 cells assessed as cell growth promotion at 10^-5 M after 48 hrs by SRB assay relative to control
A549 = experiment: Anticancer activity against human A549 cells assessed as cell growth promotion at 10^-5 M after 48 hrs by SRB assay relative to control
RXF 393 = experiment: Anticancer activity against human RXF393 cells assessed as cell growth promotion at 10^-5 M after 48 hrs by SRB assay relative to control
MCF7 = experiment: Anticancer activity against human MCF7 cells assessed as cell growth promotion at 10^-5 M after 48 hrs by SRB assay relative to control
UO-31 = experiment: Anticancer activity against human UO31 cells assessed as cell growth promotion at 10^-5 M after 48 hrs by SRB assay relative to control
MOLT-4 = experiment: Anticancer activity against human MOLT4 cells assessed as cell growth promotion at 10^-5 M after 48 hrs by SRB assay relative to control
786-0 = experiment: Anticancer activity against human 786-0 cells assessed as cell growth promotion at 10^-5 M after 48 hrs by SRB assay relative to control
SR = experiment: Anticancer activity against human SR cells assessed as cell growth promotion at 10^-5 M after 48 hrs by SRB assay relative to control
TK-10 = experiment: Anticancer activity against human TK10 cells assessed as cell growth promotion at 10^-5 M after 48 hrs by SRB assay relative to control
SF-295 = experiment: Anticancer activity against human SF295 cells assessed as cell growth promotion at 10^-5 M after 48 hrs by SRB assay relative to control
Malme-3M = experiment: Anticancer activity against human MALME-3M cells assessed as cell growth promotion at 10^-5 M after 48 hrs by SRB assay relative to control
HCT-116 = experiment: Anticancer activity against human HCT116 cells assessed as cell growth promotion at 10^-5 M after 48 hrs by SRB assay relative to control
[1] = Anticancer activity against human Hs 578T cells assessed as cell growth promotion at 10^-5 M after 48 hrs by SRB assay relative to control

Compound	Activity (OVCAR-5)	Activity (DU-145)	Activity (CCRF-CEM)	Activity (K562)	Activity (MDA-MB-468)	Activity (CAKI-1)	Activity (NCI-H226)	Activity (SF-268)	Activity (OVCAR-8)	Activity (MDA-MB-231)	Activity (NCI-H460)	Activity (EKVX)	Activity (SNB-19)	Activity (KM12)	Activity (UACC-257)	Activity (HCT-15)	Activity (HCC 2998)	Activity (SK-MEL-28)	Activity (MDA-MB-435)	Activity (T47D)	further results
O=C(O)c1ccc(-n2c(-c3ccco3)nc3ccccc3c2=O)cc1	98.22%	111.42%	87.86%	98.25%	101.43%	102.24%	78.42%	106.85%	104.87%	83.73%	95.38%	98.39%	91.35%	104.99%	107.43%	93.69%	120.31%	115.08%	112.17%	83%	Activity (A498): 106.88%; Activity (SK-OV-3): 107.59%; Activity (SN12C): 99.34%; Activity (NCI/ADR-RES): 102.28%; Activity (SF-539): 104.2%; Activity (OVCAR-3): 105.38%; Activity (PC-3): 86.25%; Activity (SK-MEL-5): 94.96%; Activity (A549): 104.77%; Activity (RXF 393): 109.93%; Activity (MCF7): 63.47%; Activity (UO-31): 68.61%; Activity (MOLT-4): 91.05%; Activity (786-0): 105.17%; Activity (SR): 92.85%; Activity (TK-10): 94.73%; Activity (SF-295): 108.58%; Activity (Malme-3M): 102.96%; Activity (HCT-116): 99.69%
O=C(Nc1ccccc1C(=O)Nc1ccc(/C=C/C=C/c2ccccc2)cc1)c1ccccc1	99.95%	111%	53.89%	62.47%	81.99%	83.56%	84.69%	98.17%	104%	87.48%	94.36%	87.7%	90.58%	93.79%	103%	73.53%	93.69%	107%	90.52%	86.44%	Activity [1]: 80.44%; Activity (SK-OV-3): 87.56%; Activity (SN12C): 87.79%; Activity (NCI/ADR-RES): 112%; Activity (SF-539): 102%; Activity (OVCAR-3): 88.79%; Activity (PC-3): 75.75%; Activity (SK-MEL-5): 77.57%; Activity (A549): 91.49%; Activity (RXF 393): 98.83%; Activity (MCF7): 100%; Activity (UO-31): 49.85%; Activity (MOLT-4): 77.32%; Activity (786-0): 84.31%; Activity (SR): 70.89%; Activity (TK-10): 114%; Activity (SF-295): 58.93%; Activity (Malme-3M): 78.99%; Activity (HCT-116): 84.74%
COc1cc(/C=C/c2ccc(NC(=O)c3ccccc3NC(=O)c3ccccc3)cc2)ccc1O	116%	108%	79.93%	96.88%	95.39%	95.9%	95.46%	108%	105%	96.74%	107%	100%	104%	106%	104%	98.82%	99.7%	115%	107%	89.85%	Activity [1]: 100%; Activity (SK-OV-3): 96.53%; Activity (SN12C): 96.62%; Activity (NCI/ADR-RES): 117%; Activity (SF-539): 110%; Activity (OVCAR-3): 107%; Activity (PC-3): 94.13%; Activity (SK-MEL-5): 86.16%; Activity (A549): 99.78%; Activity (RXF 393): 95.14%; Activity (MCF7): 96.33%; Activity (UO-31): 68.52%; Activity (MOLT-4): 86.81%; Activity (786-0): 95.86%; Activity (SR): 106.41%; Activity (TK-10): 97.64%; Activity (SF-295): 162%; Activity (Malme-3M): 101%; Activity (HCT-116): 92.7%
